Patent publication US11958830B2, “Protease inhibitors, preparation, and uses thereof” (WESTLAKE PHARMACEUTICALS (HANGZHOU) CO., LTD., priority 2021, dated 2024)

Key:
SARS-CoV-2 = assay: microbe, parasite or virus in culture; type: cell-based; conditions: Severe acute respiratory syndrome coronavirus 2, A549, read-out: IC50, anti-SARS-CoV-2 activity in A549 cells
SARS-CoV-2 3CLpro = molecular target: T1, SARS-CoV-2 3CLpro (Severe acute respiratory syndrome coronavirus 2, UniProt P0DTD1); assay: FRET-based continuous kinetic enzymatic assay of 3CLpro; type: biochemical; conditions: 100 nM 3CLpro, 100 μM fluorogenic substrate, 1 hour pre-incubation, 30° C.; read-out: IC50 against SARS-CoV-2 3CLpro
T1 construct: made in house; host or cells: E. coli

Row | Structure (SMILES) | IC50 (SARS-CoV-2) | IC50 (SARS-CoV-2 3CLpro)
1 | CNC(=O)[C@@H](Cc1cccc(F)c1)NC(=O)C1CN(C(=O)c2cncc3cccc(O)c23)CCN1Cc1ccc(Cl)cc1Cl (stereo partly shown) [Compound 1] | 848 nM | 165 nM
2 | CNC(=O)c1cc(Br)cc([N+](=O)[O-])c1N1CC[C@@]2(CN(C(=O)c3cncc4cc(O)ccc34)C[C@@H]2c2ccccc2)C1 [Compound 8] | 38.8 nM | 49.5 nM
